Reference: patent publication US20240158446A1, “CYCLIC COMPOUND HAVING SELECTIVE INHIBITORY ACTION ON KRAS OVER HRAS AND NRAS” (CHUGAI SEIYAKU KABUSHIKI KAISHA, priority 2021, published 2024)
Read-outs that look alike come from different tables or passages of the source. Where a SMILES comes first, the peptide text is derived from it. Bridges are numbered along the chain shown (N, C = ends). [ ]: non-standard residue; d: D form. The star is where a group is joined. hPhe(3,5-F2-4-CF3) = N[C@@H](CCc1cc(F)c(C(F)(F)F)c(F)c1)C(=O)O; hPhe(3-Cl-4-CF3) = N[C@@H](CCc1ccc(C(F)(F)F)c(Cl)c1)C(=O)O; NPrPhe(4-CF3) = CCCN[C@@H](Cc1ccc(C(F)(F)F)cc1)C(=O)O; NMeGly(cPent) = CN[C@H](C(=O)O)C1CCCC1; Ac4c(3,3-F2) = NC1(C(=O)O)CC(F)(F)C1; Hyp = O=C(O)[C@@H]1C[C@@H](O)CN1; NMeD = CN[C@@H](CC(=O)O)C(=O)O; NMeL = CN[C@@H](CC(C)C)C(=O)O; Morpholide = C1CN(*)CCO1; Ac5c = NC1(C(=O)O)CCCC1; Aze = O=C(O)[C@@H]1CCN1; Ac4c = NC1(C(=O)O)CCC1; NEtG = CCNCC(=O)O; Sar = CNCC(=O)O

Tests used:
[1] = target: GDP-bound NRAS wild-type protein (Homo sapiens, UniProt P01111); assay: Binding to NRAS by surface plasmon resonance (SPR), Single Cycle Kinetics; conditions: for NRAS/KRAS (ratio of KD value with respect to NRAS to KD value with respect to KRAS) / NRAS/KRAS (ratio of KD value for NRAS to KD value for KRAS): SPR, GDP-bound NRAS wild-type protein vs GDP-bound KRAS wild-type protein
Sequence of GDP-bound NRAS wild-type protein (P01111 whole entry): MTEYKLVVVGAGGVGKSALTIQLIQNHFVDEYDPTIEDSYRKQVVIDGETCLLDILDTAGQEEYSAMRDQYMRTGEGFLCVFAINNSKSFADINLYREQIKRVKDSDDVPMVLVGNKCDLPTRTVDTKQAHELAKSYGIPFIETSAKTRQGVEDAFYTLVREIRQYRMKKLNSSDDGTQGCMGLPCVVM

[2] = target: GDP-bound KRAS wild-type protein (Homo sapiens, UniProt P01116); assay: Binding to KRAS by surface plasmon resonance (SPR), Single Cycle Kinetics; conditions: GDP-bound KRAS wild-type protein, read-out: KRAS KD
Sequence of GDP-bound KRAS wild-type protein (P01116 whole entry): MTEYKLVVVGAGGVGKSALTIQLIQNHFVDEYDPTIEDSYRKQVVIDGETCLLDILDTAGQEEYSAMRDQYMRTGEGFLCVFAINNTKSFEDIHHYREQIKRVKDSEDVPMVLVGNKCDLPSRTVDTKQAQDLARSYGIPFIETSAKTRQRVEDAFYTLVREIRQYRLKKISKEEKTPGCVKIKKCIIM

[3] = target: GDP-bound HRAS wild-type protein (Homo sapiens, UniProt P01112); assay: Binding to HRAS by surface plasmon resonance (SPR), Single Cycle Kinetics; conditions: for HRAS/KRAS (ratio of KD value with respect to HRAS to KD value with respect to KRAS) / HRAS/KRAS (ratio of KD value for HRAS to KD value for KRAS): SPR, GDP-bound HRAS wild-type protein vs GDP-bound KRAS wild-type protein
Sequence of GDP-bound HRAS wild-type protein (P01112 whole entry): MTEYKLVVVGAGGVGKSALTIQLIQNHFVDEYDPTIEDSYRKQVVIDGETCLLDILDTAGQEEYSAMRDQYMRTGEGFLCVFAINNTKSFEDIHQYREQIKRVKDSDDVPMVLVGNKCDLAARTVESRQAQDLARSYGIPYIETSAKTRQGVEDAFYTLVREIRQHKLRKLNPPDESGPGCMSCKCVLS

[4] = SPR Single Cycle Kinetics, 1:1 binding model
[5] = SPR, Single Cycle Kinetics, 1:1 binding model

SMILES	Kd [2, 4] [nM]	NRAS/KRAS (ratio of KD value with respect to NRAS to KD value with respect to KRAS) [1]	HRAS/KRAS (ratio of KD value with respect to HRAS to KD value with respect to KRAS) [3]	NRAS/KRAS (ratio of KD value for NRAS to KD value for KRAS) [1]	HRAS/KRAS (ratio of KD value for HRAS to KD value for KRAS) [3]	also measured
CC[C@H](C)[C@@H]1NC(=O)[C@H](CC(C)C)N(C)C(=O)C[C@@H](C(=O)N2CCOCC2)N(C)C(=O)[C@H](C2CCCC2)N(C)C(=O)C2(CCCC2)NC(=O)[C@@H]2CCCN2C(=O)[C@H](CCc2cc(F)c(C(F)(F)F)c(F)c2)NC(=O)CN(C)C(=O)[C@H](Cc2ccc(C(F)(F)F)cc2)N2CCCCC[C@@H](C2=O)N(C)C(=O)[C@H](C)NC1=O [PP0481]	850	B (a compound having 3 or more and less than 10 is denoted as B)	B (a compound having 3 or more and less than 10 is denoted as B)			
CCC[C@@H]1C[C@H]2C(=O)NC3(CCC3)C(=O)N(C)[C@@H](C3CCCC3)C(=O)N(C)[C@H](C(=O)N(C)C)CC(=O)N(C)[C@@H](CC(C)C)C(=O)N[C@@H]([C@@H](C)CC)C(=O)N(C)CC(=O)N(C)[C@H]3C/C=C\CCN(C3=O)[C@@H](Cc3ccc(C)cc3)C(=O)N(C)CC(=O)N[C@@H](CCc3cc(F)c(C(F)(F)F)c(F)c3)C(=O)N2C1 [PP2231]				A (a compound having 10 or more and less than 20 is denoted as A)	B (a compound having 3 or more and less than 10 is denoted as B)	Kd ([2]; SPR, Single Cycle Kinetics): 0.18 nM
CCCN1C(=O)CN(C)C(=O)[C@@H]2CCN2C(=O)[C@H]([C@@H](C)CC)NC(=O)[C@H](CC(C)C)N(C)C(=O)C[C@@H](C(=O)N2CCOCC2)N(C)C(=O)[C@H](C2CCCC2)N(C)C(=O)C2(CC(F)(F)C2)NC(=O)[C@@H]2CCCN2C(=O)[C@H](CCc2cc(F)c(C(F)(F)F)c(F)c2)NC(=O)CN(C)C(=O)[C@@H]1Cc1ccc(C(F)(F)F)cc1 [PP0783] ([NMeL]I[Aze][Sar][NPrPhe(4-CF3)][Sar][hPhe(3,5-F2-4-CF3)]P[Ac4c(3,3-F2)][NMeGly(cPent)][NMeD]-Morpholide; lactam N-11)	0.85	B (a compound having 3 or more and less than 10 is denoted as B)	B (a compound having 3 or more and less than 10 is denoted as B)			
CCO[C@@H]1C[C@H]2C(=O)NC3(CC(C)(C)C3)C(=O)N(C)[C@@H](C(CC)CC)C(=O)N(C)[C@H](C(=O)N(C)C)CC(=O)N(C)[C@H]3CCC/C=C/c4ccc(cc4)C[C@@H](C(=O)N(C)CC(=O)N[C@@H](CCc4cc(F)c(C(F)(F)F)c(F)c4)C(=O)N2C1)N1CC/C=C\C[C@@H](C1=O)N(C)C(=O)CN(C)C(=O)[C@H]([C@@H](C)CC)NC3=O [PP2575]	0.086					NRAS/KRAS (ratio of KD value with respect to GDP-bound NRAS wild-type protein to KD value with respect to KRAS) ([1]; SPR KD ratio NRAS/KRAS, class symbols): A (a compound having 10 or more and less than 20 is denoted as A); HRAS/KRAS (ratio of KD value with respect to GDP-bound HRAS wild-type protein to KD value with respect to KRAS) ([3]; SPR KD ratio HRAS/KRAS, class symbols): A (a compound having 10 or more and less than 20 is denoted as A)
CCO[C@@H]1C[C@H]2C(=O)NC3(CC(C)(C)C3)C(=O)N(C)[C@@H](C3CCCC3)C(=O)N(C)[C@H](C(=O)N(C)C)CC(=O)N(C)[C@@H](CC)C(=O)N[C@@H]([C@@H](C)CC)C(=O)N(C)CC(=O)N(C)[C@H]3C/C=C\CCN(C3=O)[C@@H](Cc3ccc(C(F)(F)F)cc3)C(=O)N(C)CC(=O)N[C@@H](CCc3ccc(C(F)(F)F)c(OC)c3)C(=O)N2C1 [PP1559]						NRAS/KRAS (ratio of KD value for NRAS to KD value for KRAS) ([1]; KD ratio class): A (a compound having 10 or more and less than 20 is denoted as A); Kd [2, 5]: 0.047 nM; HRAS/KRAS (ratio of KD value for HRAS to KD value for KRAS) ([3]; KD ratio class): A (a compound having 10 or more and less than 20 is denoted as A)
CC[C@H](C)[C@@H]1NC(=O)[C@H](CC(C)C)N(C)C(=O)C[C@@H](C(=O)N(C)C)N(C)C(=O)[C@H](C2CCCC2)N(C)C(=O)C2(CCC2)NC(=O)[C@@H]2CC(F)(F)CN2C(=O)[C@H](CCc2ccc(C(F)(F)F)c(Cl)c2)NC(=O)CN(C)C(=O)[C@H](Cc2ccc(F)cc2)N2CCCCC[C@@H](C2=O)N(C)C(=O)CN(C)C1=O [PP0973]				B (a compound having 3 or more and less than 10 is denoted as B)	B (a compound having 3 or more and less than 10 is denoted as B)	Kd ([2]; SPR, Single Cycle Kinetics): 0.085 nM
CCCN(C)C(=O)[C@@H]1CC(=O)N(C)[C@@H](CC2CC2)C(=O)N[C@@H]([C@@H](C)CC)C(=O)N(C)CC(=O)N(C)[C@H]2C/C=C\CCN(C2=O)[C@@H](Cc2ccc(C(F)(F)F)cc2)C(=O)N(C)CC(=O)N[C@@H](CCc2cc(F)c(C(F)(F)F)c(F)c2)C(=O)N2C[C@H](OCC)C[C@H]2C(=O)NC2(CCC2)C(=O)N(C)[C@@H](C2CCCC2)C(=O)N1C [PP1388]						NRAS/KRAS (ratio of KD value for NRAS to KD value for KRAS) ([1]; KD ratio class): A (a compound having 10 or more and less than 20 is denoted as A); Kd [2, 5]: 0.076 nM; HRAS/KRAS (ratio of KD value for HRAS to KD value for KRAS) ([3]; KD ratio class): B (a compound having 3 or more and less than 10 is denoted as B)
CCCN1C(=O)CN(C)C(=O)CN(CC)C(=O)[C@H]([C@@H](C)CC)NC(=O)[C@H](CC(C)C)N(C)C(=O)C[C@@H](C(=O)N2CCOCC2)NC(=O)[C@H](C2CCCC2)N(C)C(=O)C2(CCCC2)NC(=O)[C@@H]2CCCN2C(=O)[C@H](CCc2ccc(C(F)(F)F)c(Cl)c2)NC(=O)CN(C)C(=O)[C@@H]1Cc1ccc(C(F)(F)F)cc1 [PP0331] ([NMeL]I[NEtG][Sar][NPrPhe(4-CF3)][Sar][hPhe(3-Cl-4-CF3)]P[Ac5c][NMeGly(cPent)]D-Morpholide; lactam N-11)	2.8			B (a compound having 3 or more and less than 10 is denoted as B)	B (a compound having 3 or more and less than 10 is denoted as B)	
CCO[C@@H]1C[C@H]2C(=O)NC3(CC(C)(C)C3)C(=O)N(C)[C@@H](C(CC)CC)C(=O)N(C)[C@H](C(=O)N3CCCC3)CC(=O)N(C)[C@@H](C)C(=O)N[C@@H]([C@@H](C)CC)C(=O)N(C)CC(=O)N(C)[C@H]3C/C=C\CCN(C3=O)[C@@H](Cc3ccc(C)cc3)C(=O)N(C)CC(=O)N[C@@H](CCc3cc(F)c(C(F)(F)F)c(F)c3)C(=O)N2C1 [PP2145]				A (a compound having 10 or more and less than 20 is denoted as A)	A (a compound having 10 or more and less than 20 is denoted as A)	Kd ([2]; SPR, Single Cycle Kinetics): 0.39 nM

More lines, main results first:

Kd [2, 4] [nM]	SMILES	NRAS/KRAS (ratio of KD value with respect to NRAS to KD value with respect to KRAS) [1]	HRAS/KRAS (ratio of KD value with respect to HRAS to KD value with respect to KRAS) [3]	NRAS/KRAS (ratio of KD value for NRAS to KD value for KRAS) [1]	HRAS/KRAS (ratio of KD value for HRAS to KD value for KRAS) [3]	also measured
0.31	CCCN1C(=O)CN(C)C(=O)[C@@H]2CCN2C(=O)[C@H]([C@@H](C)CC)NC(=O)[C@H](CC(C)C)N(C)C(=O)C[C@@H](C(=O)N2CCOCC2)N(C)C(=O)[C@H](C2CCCC2)N(C)C(=O)C2(CCC2)NC(=O)[C@@H]2C[C@@H](OCC)CN2C(=O)[C@H](CCc2ccc(C(F)(F)F)c(Cl)c2)NC(=O)CN(C)C(=O)[C@@H]1Cc1ccc(C(F)(F)F)cc1 [PP0405] ([NMeL]I[Aze][Sar][NPrPhe(4-CF3)][Sar][hPhe(3-Cl-4-CF3)][Hyp](Et)[Ac4c][NMeGly(cPent)][NMeD]-Morpholide; lactam N-11)			B (a compound having 3 or more and less than 10 is denoted as B)	C (A compound having a KD ratio of 0.1 or more and less than 3 is denoted as C)	
23	CCO[C@@H]1C[C@H]2C(=O)NC3(CCC3)C(=O)N(C)[C@@H](C3CCCC3)C(=O)N(CCc3ccccc3)[C@H](C(=O)N(C)C)CC(=O)N(C)[C@@H](CC)C(=O)N[C@@H]([C@@H](C)CC)C(=O)N(C)CC(=O)N(C)[C@H]3CCCCCN(C3=O)[C@@H](Cc3ccc(C(F)(F)F)cc3)C(=O)N(C)CC(=O)N[C@@H](CCc3cc(F)c(C(F)(F)F)c(F)c3)C(=O)N2C1 [PP0637]	B (a compound having 3 or more and less than 10 is denoted as B)	B (a compound having 3 or more and less than 10 is denoted as B)			
0.021	CCO[C@@H]1C[C@H]2C(=O)NC3(CCC3)C(=O)N(C)[C@@H](C3CCCC3)C(=O)N(C)[C@H](C(=O)N(C)C)CC(=O)N(C)[C@@H](CC3CC3)C(=O)N[C@@H]([C@@H](C)CC)C(=O)N(C)CC(=O)N(C)[C@H]3CCCCN(C3=O)[C@@H](Cc3ccc(C(F)(F)F)cc3)C(=O)N(C)CC(=O)N[C@@H](CCc3cc(F)c(C(F)(F)F)c(F)c3)C(=O)N2C1 [PP0697]	C (A compound having a KD ratio of 0.1 or more and less than 3 is denoted as C)	C (A compound having a KD ratio of 0.1 or more and less than 3 is denoted as C)			
0.17	CCCN1C(=O)CN(C)C(=O)CN(CC)C(=O)[C@H]([C@@H](C)CC)NC(=O)[C@H](CC(C)C)N(C)C(=O)C[C@@H](C(=O)N(C)C)N(C)C(=O)[C@H](C2CCCC2)N(C)C(=O)C2(CCC2)NC(=O)[C@@H]2CCCN2C(=O)[C@H](CCc2ccc(C(F)(F)F)c(Cl)c2)NC(=O)CN(C)C(=O)[C@@H]1Cc1ccc(C(F)(F)F)cc1 [PP0424] ([NMeL]I[NEtG][Sar][NPrPhe(4-CF3)][Sar][hPhe(3-Cl-4-CF3)]P[Ac4c][NMeGly(cPent)][NMeD]-NMe2; lactam N-11)	B (a compound having 3 or more and less than 10 is denoted as B)	C (A compound having a KD ratio of 0.1 or more and less than 3 is denoted as C)			
